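Step 1: Grow cells in 96-well plates. Step 2: Expose to compound for 48 hours at 5 concentrations. Step 3: Interpolate endpoints linearly; if unreached, use highest concentration. The concentration for full growth arrest is given as TGI.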
Legend:
Test in all cases: NCI-60 cell line screen, 48 h
EKVX NSCLC = system: EKVX NSCLC
HOP-62 NSCLC = system: HOP-62 NSCLC
HCT-116 colon = system: HCT-116 colon
IGROV1 ovarian = system: IGROV1 ovarian
COLO 205 colon = system: COLO 205 colon
SF-268 CNS = system: SF-268 CNS
RXF 393 renal = system: RXF 393 renal
LOX IMVI melanoma = system: LOX IMVI melanoma
BT-549 breast = system: BT-549 breast
NCI-H23 lung = system: NCI-H23 lung
KM12 colon = system: KM12 colon
MDA-MB-231 breast = system: MDA-MB-231 breast
UACC-62 melanoma = system: UACC-62 melanoma
UO-31 renal = system: UO-31 renal
DU-145 prostate = system: DU-145 prostate
M14 melanoma = system: M14 melanoma
PC-3 prostate = system: PC-3 prostate
MOLT-4 leukemia = system: MOLT-4 leukemia
TK-10 renal = system: TK-10 renal
A498 renal = system: A498 renal
K-562 leukemia = system: K-562 leukemia
NCI-H226 lung = system: NCI-H226 lung
NCI-H460 lung = system: NCI-H460 lung
U251 CNS = system: U251 CNS
ACHN renal = system: ACHN renal
UACC-257 melanoma = system: UACC-257 melanoma
SK-MEL-2 melanoma = system: SK-MEL-2 melanoma
A549 NSCLC = system: A549 NSCLC
MDA-N = system: MDA-N
SF-295 CNS = system: SF-295 CNS
CCRF-CEM leukemia = system: CCRF-CEM leukemia
MDA-MB-435 = system: MDA-MB-435
MALME-3M melanoma = system: MALME-3M melanoma
OVCAR-5 ovarian = system: OVCAR-5 ovarian
HS 578T breast = system: HS 578T breast
MCF7 breast = system: MCF7 breast
OVCAR-4 ovarian = system: OVCAR-4 ovarian
SK-MEL-5 melanoma = system: SK-MEL-5 melanoma
NCI-H522 lung = system: NCI-H522 lung
T-47D breast = system: T-47D breast
SNB-19 CNS = system: SNB-19 CNS
SK-OV-3 ovarian = system: SK-OV-3 ovarian
HT29 colon = system: HT29 colon
SR leukemia = system: SR leukemia
RPMI-8226 leukemia = system: RPMI-8226 leukemia
SW-620 colon = system: SW-620 colon
HOP-92 NSCLC = system: HOP-92 NSCLC
SF-539 CNS = system: SF-539 CNS
NCI/ADR-RES ovarian = system: NCI/ADR-RES ovarian
HCC-2998 colon = system: HCC-2998 colon
OVCAR-3 ovarian = system: OVCAR-3 ovarian
SN12C renal = system: SN12C renal
HCT-15 colon = system: HCT-15 colon
HL-60(TB) leukemia = system: HL-60(TB) leukemia
786-0 renal = system: 786-0 renal
CAKI-1 renal = system: CAKI-1 renal
OVCAR-8 ovarian = system: OVCAR-8 ovarian
SK-MEL-28 melanoma = system: SK-MEL-28 melanoma
SNB-75 CNS = system: SNB-75 CNS
DLD-1 colon = system: DLD-1 colon
M19-MEL melanoma = system: M19-MEL melanoma
SNB-78 CNS = system: SNB-78 CNS
XF 498 CNS = system: XF 498 CNS
DMS 114 small cell lung = system: DMS 114 small cell lung
KM20L2 colon = system: KM20L2 colon
DMS 273 small cell lung = system: DMS 273 small cell lung

CN(C)CCCN1C(=S)N(CCCN(C)C)c2c3cc(O)ccc3nc3c([N+](=O)[O-])ccc1c23
TGI (EKVX NSCLC): 16.2 µM
TGI (HOP-62 NSCLC): 15.3 µM
TGI (HCT-116 colon): 6.07 µM
TGI (IGROV1 ovarian): 7 µM
TGI (COLO 205 colon): 15.9 µM
TGI (SF-268 CNS): 7 µM
TGI (RXF 393 renal): 15.1 µM
TGI (LOX IMVI melanoma): 5.9 µM
TGI (BT-549 breast): 28 µM
TGI (NCI-H23 lung): 17.1 µM
TGI (KM12 colon): 9.51 µM
TGI (MDA-MB-231 breast): 25.5 µM
TGI (UACC-62 melanoma): 19.6 µM
TGI (UO-31 renal): 18.7 µM
TGI (DU-145 prostate): 16.5 µM
TGI (M14 melanoma): 22.4 µM
TGI (PC-3 prostate): 13.3 µM
TGI (MOLT-4 leukemia): 8.81 µM
TGI (TK-10 renal): 29 µM
TGI (A498 renal): 5.47 µM
TGI (K-562 leukemia): > 33 µM
TGI (NCI-H226 lung): 13.7 µM
TGI (NCI-H460 lung): 6.7 µM
TGI (U251 CNS): 28 µM
TGI (ACHN renal): 11 µM
TGI (UACC-257 melanoma): 21.2 µM
TGI (SK-MEL-2 melanoma): 15.2 µM
TGI (A549 NSCLC): 9.73 µM
TGI (MDA-N): 34.9 µM
TGI (SF-295 CNS): 19 µM
TGI (CCRF-CEM leukemia): 19 µM
TGI (MDA-MB-435): 15.3 µM
TGI (MALME-3M melanoma): 22.2 µM
TGI (OVCAR-5 ovarian): 28.5 µM
TGI (HS 578T breast): 24.4 µM
TGI (MCF7 breast): 6.77 µM
TGI (OVCAR-4 ovarian): 10.9 µM
TGI (SK-MEL-5 melanoma): 12.1 µM
TGI (NCI-H522 lung): 9.93 µM
TGI (T-47D breast): 9.48 µM
TGI (SNB-19 CNS): 13.9 µM
TGI (SK-OV-3 ovarian): 17.2 µM
TGI (HT29 colon): 6.31 µM
TGI (SR leukemia): > 22.5 µM
TGI (RPMI-8226 leukemia): 15.5 µM
TGI (SW-620 colon): > 42 µM
TGI (HOP-92 NSCLC): 16.1 µM
TGI (SF-539 CNS): 17.1 µM
TGI (NCI/ADR-RES ovarian): 22.4 µM
TGI (HCC-2998 colon): 8.02 µM
TGI (OVCAR-3 ovarian): 5.56 µM
TGI (SN12C renal): 36.1 µM
TGI (HCT-15 colon): 12.6 µM
TGI (HL-60(TB) leukemia): 22.1 µM
TGI (786-0 renal): 8.55 µM
TGI (CAKI-1 renal): 15 µM
TGI (OVCAR-8 ovarian): 15 µM
TGI (SK-MEL-28 melanoma): 10.8 µM
TGI (SNB-75 CNS): 16.9 µM

Cc1c(C(=O)CSc2nc3ccccc3c(=O)n2-c2ccccc2)c(=O)n(-c2ccccc2)n1C
TGI (HOP-62 NSCLC): 69.1 µM
TGI (HCT-116 colon): > 100 µM
TGI (IGROV1 ovarian): > 100 µM
TGI (COLO 205 colon): > 100 µM
TGI (SF-268 CNS): > 100 µM
TGI (DLD-1 colon): > 100 µM
TGI (LOX IMVI melanoma): > 100 µM
TGI (NCI-H23 lung): > 100 µM
TGI (KM12 colon): > 100 µM
TGI (M19-MEL melanoma): > 100 µM
TGI (UO-31 renal): 79.4 µM
TGI (SNB-78 CNS): > 100 µM
TGI (M14 melanoma): > 100 µM
TGI (MOLT-4 leukemia): > 100 µM
TGI (TK-10 renal): > 100 µM
TGI (A498 renal): > 100 µM
TGI (NCI-H226 lung): 69.2 µM
TGI (NCI-H460 lung): > 100 µM
TGI (U251 CNS): 69.2 µM
TGI (ACHN renal): > 100 µM
TGI (UACC-257 melanoma): > 100 µM
TGI (SK-MEL-2 melanoma): > 100 µM
TGI (A549 NSCLC): > 100 µM
TGI (SF-295 CNS): 66.2 µM
TGI (CCRF-CEM leukemia): > 100 µM
TGI (MALME-3M melanoma): > 100 µM
TGI (OVCAR-5 ovarian): > 100 µM
TGI (XF 498 CNS): > 100 µM
TGI (OVCAR-4 ovarian): > 100 µM
TGI (SK-MEL-5 melanoma): > 100 µM
TGI (NCI-H522 lung): 79.5 µM
TGI (SNB-19 CNS): > 100 µM
TGI (SK-OV-3 ovarian): 41.4 µM
TGI (HT29 colon): > 100 µM
TGI (SR leukemia): > 100 µM
TGI (RPMI-8226 leukemia): > 100 µM
TGI (SW-620 colon): > 100 µM
TGI (HOP-92 NSCLC): 95.8 µM
TGI (SF-539 CNS): > 100 µM
TGI (DMS 114 small cell lung): > 100 µM
TGI (HCC-2998 colon): > 100 µM
TGI (OVCAR-3 ovarian): 73.5 µM
TGI (SN12C renal): > 100 µM
TGI (HCT-15 colon): > 100 µM
TGI (HL-60(TB) leukemia): > 100 µM
TGI (KM20L2 colon): > 100 µM
TGI (786-0 renal): 38.9 µM
TGI (CAKI-1 renal): 0.729 µM
TGI (SK-MEL-28 melanoma): > 100 µM
TGI (SNB-75 CNS): > 100 µM
TGI (DMS 273 small cell lung): > 100 µM

— PubChem BioAssay (NCI)
